Square brackets hold non-standard residues; d marks the D form. Peptide text beside a SMILES is read from it. * marks the point of attachment. X1 = O=C(O)CCC(NC(=O)NC(CCCCN*)C(=O)O)C(=O)O; 2Nal = N[CH](Cc1ccc2ccccc2c1)C(=O)O; Nicotinoyl(6-F) = O=C(c1ccc(F)nc1)*; 4Amb = NCc1ccc(C(=O)O)cc1

The values below come from patent US10815200B2, “18F—tagged inhibitors of prostate specific membrane antigen (PSMA) and their use as imaging agents for prostate cancer” (DEUTSCHES KREBSFORSCHUNGSZENTRUM, priority 2015, dated 2020).

Experiment [1] deals with T1, PSMA (Homo sapiens, UniProt Q04609).
T1 construct: host or cells: LNCaP cells
Put plainly: Competitive cell binding assay (binding affinity) on LNCaP cells against 68Ga-labeled [Glu-urea-Lys(Ahx)]2-HBED-CC. To be noted: competition with 68Ga-labeled [Glu-urea-Lys(Ahx)]2-HBED-CC, non-radioactive reference compounds. On the procedure: For binding studies and in vivo experiments LNCaP cells (metastatic lesion of human prostatic adenocarcinoma, ATCC CRL-1740) were cultured in RPMI medium supplemented with 10% fetal calf serum and Glutamax (PAA, Austria). During cell culture, cells were grown at 37° C. in an incubator with humidified air, equilibrated with 5% CO2. The cells were harvested using trypsin-ethylenediaminetetraacetic acid (trypsin-1.5 EDTA; 0.25% trypsin, 0.02% EDTA, all from PAA, Austria) and washed with PBS.
The competitive cell binding assay and internalization experiments were performed as described previously (Eder et al. Bioconjugate Chem. 2012, 23 (4), 688-697). Briefly, the respective cells (10^5 per well) were incubated with the radioligand (^68Ga-labeled [Glu-urea-Lys(Ahx)]2-HBED-CC (Schafer et al. EJNMMI Research 2012, 2:23 doi:10.1186/2191-219X-2-23))) in the presence of 12 different concentrations of analyte (0-5000 nM, 100 μL/well). After incubation, washing was carried out using a multiscreen vacuum manifold (Millipore, Billerica, Mass.). Cell-bound radioactivity was measured using a gamma counter (Packard Cobra II, GMI, Minnesota, USA). The 50% inhibitory concentration (IC50) was calculated by fitting the data using a nonlinear regression algorithm (GraphPad Software). Experiments were performed three times. Reference is made to Table A below.

The subject of experiment [2] is LNCaP cells. Put plainly: Specific cell uptake and internalization in LNCaP cells. In kind it is cell-based, human. The following applies: for Cell surface / Internalised: 30 nM radiolabeled compound, 45 min, 37° C., specific (PMPA block); for Internalized fraction: (Internalized activity/total activity)*100. On the procedure: During cell culture, cells were grown at 37° C. in an incubator with humidified air, equilibrated with 5% CO2. […] To determine the specific cell uptake and internalization, 10^5 cells were seeded in poly-L-lysine coated 24-well cell culture plates 24 h before incubation. After washing, the cells were incubated with 30 nM of the radiolabeled compounds for 45 min at 37° C. […] Cellular uptake was terminated by washing 3 times with 1 mL of ice-cold PBS. […] The cells were washed with 1 mL of ice-cold PBS and lysed using 0.3 N NaOH (0.5 mL). The surface-bound and the internalized fractions were measured in a gamma counter. The cell uptake was calculated as percent of the initially added radioactivity bound to 10^5 cells [% ID/10^5 cells].

T1 sequence (Q04609 whole entry): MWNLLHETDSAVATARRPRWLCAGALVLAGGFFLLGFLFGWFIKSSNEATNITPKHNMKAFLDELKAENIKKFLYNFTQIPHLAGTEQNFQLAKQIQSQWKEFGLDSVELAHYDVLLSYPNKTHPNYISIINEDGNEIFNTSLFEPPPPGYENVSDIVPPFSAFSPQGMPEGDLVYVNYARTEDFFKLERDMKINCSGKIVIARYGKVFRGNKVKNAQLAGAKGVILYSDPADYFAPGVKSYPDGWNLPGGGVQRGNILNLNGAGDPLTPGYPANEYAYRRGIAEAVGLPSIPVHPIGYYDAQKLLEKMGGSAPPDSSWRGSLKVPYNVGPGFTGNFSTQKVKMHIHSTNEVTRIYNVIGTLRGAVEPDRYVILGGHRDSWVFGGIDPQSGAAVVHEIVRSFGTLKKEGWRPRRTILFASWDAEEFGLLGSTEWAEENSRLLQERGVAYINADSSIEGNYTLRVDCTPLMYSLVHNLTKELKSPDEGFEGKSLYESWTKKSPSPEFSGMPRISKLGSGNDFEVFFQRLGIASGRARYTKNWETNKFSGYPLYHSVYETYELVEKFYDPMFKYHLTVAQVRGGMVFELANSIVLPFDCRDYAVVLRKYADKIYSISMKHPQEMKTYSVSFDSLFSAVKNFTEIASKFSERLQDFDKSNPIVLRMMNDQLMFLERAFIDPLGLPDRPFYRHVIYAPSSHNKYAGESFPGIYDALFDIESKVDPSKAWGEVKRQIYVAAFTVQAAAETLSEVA

Usually IC50 stands for the point on the concentration scale where inhibition reaches its midpoint. With `O=C(O)CCC(NC(=O)NC(CCCCNC(=O)C(Cc1ccc2ccccc2c1)NC(=O)c1ccc(CNC(=O)C(CCC(=O)O)NC(=O)C(CCC(=O)O)NC(=O)c2ccc(F)nc2)cc1)C(=O)O)C(=O)O` (stereo not shown) [PSMA-1007, (Glu)-(Urea)-(Lys)-(2-Nal)-(Bn)-(Glu)-(Glu)-FN], the IC50 in experiment [1] is 5 nM.

Turning to `O=C(O)CC[C@@H](NC(=O)N[C@H](CCCCNC(=O)[C@@H](Cc1ccc2ccccc2c1)NC(=O)[C@@H](CCC(=O)O)NC(=O)[C@@H](CCC(=O)O)NC(=O)c1ccnc(F)c1)C(=O)O)C(=O)O` [PSMA-1011, (Glu)-(Urea)-(Lys)-(2-Naphthylalanine)-(Glu)-(Glu)-FN], the half-inhibitory concentration (IC50) in experiment [1] was 7 nM.

In experiment [2], `O=C(O)CC[C@@H](NC(=O)N[C@H](CCCCNC(=O)[C@@H](Cc1ccc2ccccc2c1)NC(=O)[C@@H](CCC(=O)O)NC(=O)[C@@H](CCC(=O)O)NC(=O)c1ccnc([18F])c1)C(=O)O)C(=O)O` [PSMA-1011, (Glu)-(Urea)-(Lys)-(2-Naphthylalanine)-(Glu)-(Glu)-FN] gave a Cell surface of 4.1 % ID/10^5 cells, an Internalised of 0.7 % ID/10^5 cells and an Internalized fraction of 15%.

`O=C(O)CC[C@H](NC(=O)N[C@@H](CCCCNC(=O)[C@@H](Cc1ccc2ccccc2c1)NC(=O)CC[C@@H](NC(=O)[C@@H](CCC(=O)O)NC(=O)c1ccnc(F)c1)C(=O)O)C(=O)O)C(=O)O` [PSMA-1012, (Glu)-(Urea)-(Lys)-(2-Naphthylalanine)-(γGlu)-(Glu)-FN]: the IC50 in experiment [1] worked out at 7 nM.

Take `O=C(O)CC[C@H](NC(=O)N[C@@H](CCCCNC(=O)[C@@H](Cc1ccc2ccccc2c1)NC(=O)CC[C@@H](NC(=O)[C@@H](CCC(=O)O)NC(=O)c1ccnc([18F])c1)C(=O)O)C(=O)O)C(=O)O` [PSMA-1012, (Glu)-(Urea)-(Lys)-(2-Naphthylalanine)-(γGlu)-(Glu)-FN]: in experiment [2], the Cell surface is on record as 6.9 % ID/10^5 cells, the Internalised is 2.7 % ID/10^5 cells and the Internalized fraction is reported as 28%.

Regarding `O=C(O)CC[C@@H](NC(=O)N[C@H](CCCCNC(=O)[C@@H](Cc1ccc2ccccc2c1)NC(=O)c1ccc(CNC(=O)[C@@H](CCC(=O)O)NC(=O)c2ccnc(F)c2)cc1)C(=O)O)C(=O)O` [PSMA-1015, (Glu)-(Urea)-(Lys)-(2-Nal)-(Bn)-(Glu)-FN], the IC50 in experiment [1] is 4 nM.

In experiment [2], `O=C(O)CC[C@@H](NC(=O)N[C@H](CCCCNC(=O)[C@@H](Cc1ccc2ccccc2c1)NC(=O)c1ccc(CNC(=O)[C@@H](CCC(=O)O)NC(=O)c2ccnc([18F])c2)cc1)C(=O)O)C(=O)O` [PSMA-1015, (Glu)-(Urea)-(Lys)-(2-Nal)-(Bn)-(Glu)-FN] yielded a Cell surface of 14.3 % ID/10^5 cells, an Internalised of 6.0 % ID/10^5 cells and an Internalized fraction of 30%.

In the case of `O=C(O)CCC(NC(=O)NC(CCCCNC(=O)C(Cc1ccc2ccccc2c1)NC(=O)c1ccc(CNC(=O)C(CCC(=O)O)NC(=O)C(CCC(=O)O)NC(=O)C(CCC(=O)O)NC(=O)c2ccc([18F])nc2)cc1)C(=O)O)C(=O)O` (stereo not shown) [PSMA-1018, (Glu)-(Urea)-(Lys)-(2-Nal)-(Bn)-(Glu)-(Glu)-(Glu)-FN], in experiment [2], the Cell surface is recorded as 1.1 % ID/10^5 cells, the Internalised is recorded as 0.9 % ID/10^5 cells and the Internalized fraction worked out at 45%.

For `O=C(O)CCC(NC(=O)NC(CCCCNC(=O)C(Cc1ccc2ccccc2c1)NC(=O)c1ccc(CNC(=O)C(CCC(=O)O)NC(=O)C(CCC(=O)O)NC(=O)C(CCC(=O)O)NC(=O)c2ccc(F)nc2)cc1)C(=O)O)C(=O)O` (stereo not shown) [PSMA-1018, (Glu)-(Urea)-(Lys)-(2-Nal)-(Bn)-(Glu)-(Glu)-(Glu)-FN] ({Nicotinoyl(6-F)}-EEE[4Amb][2Nal]-X1; configuration not given here), the IC50 in experiment [1] amounted to 14 nM.

In the case of `O=C(O)CCC(NC(=O)NC(CCCCNC(=O)C(Cc1ccc2ccccc2c1)NC(=O)C1CCC(CNC(=O)C(CCC(=O)O)NC(=O)C(CCC(=O)O)NC(=O)c2ccc(F)nc2)CC1)C(=O)O)C(=O)O` (stereo not shown) [PSMA-1019, (Glu)-(Urea)-(Lys)-(2-Nal)-(Chx)-(Glu)-(Glu)-FN], the IC50 in experiment [1] was 12 nM.

In experiment [2], `O=C(O)CCC(NC(=O)NC(CCCCNC(=O)C(Cc1ccc2ccccc2c1)NC(=O)C1CCC(CNC(=O)C(CCC(=O)O)NC(=O)C(CCC(=O)O)NC(=O)c2ccc([18F])nc2)CC1)C(=O)O)C(=O)O` (stereo not shown) [PSMA-1019, (Glu)-(Urea)-(Lys)-(2-Nal)-(Chx)-(Glu)-(Glu)-FN] registered a Cell surface of 5.5 % ID/10^5 cells, an Internalised of 1.9 % ID/10^5 cells and an Internalized fraction of 26%.

For the compound `O=C(O)CCC(NC(=O)NC(CCCCNC(=O)C(Cc1ccc2ccccc2c1)NC(=O)CCC(NC(=O)C(CCC(=O)O)NC(=O)C(CCC(=O)O)NC(=O)c1ccc(F)nc1)C(=O)O)C(=O)O)C(=O)O` (stereo not shown) [PSMA-1020, (Glu)-(Urea)-(Lys)-(2-Nal)-(γGlu)-(Glu)-(Glu)-FN], the IC50 in experiment [1] was 9 nM.

Consider `O=C(O)CCC(NC(=O)NC(CCCCNC(=O)C(Cc1ccc2ccccc2c1)NC(=O)CCC(NC(=O)C(CCC(=O)O)NC(=O)C(CCC(=O)O)NC(=O)c1ccc([18F])nc1)C(=O)O)C(=O)O)C(=O)O` (stereo not shown) [PSMA-1020, (Glu)-(Urea)-(Lys)-(2-Nal)-(γGlu)-(Glu)-(Glu)-FN], for which, in experiment [2], the Cell surface is reported as 6.8 % ID/10^5 cells, the Internalised came to 1.5 % ID/10^5 cells and the Internalized fraction is reported as 18%.

On to `O=C(O)CCC(NC(=O)NC(CCCCNC(=O)C(Cc1ccc2ccccc2c1)NC(=O)CCC(NC(=O)CCC(NC(=O)c1ccc(F)nc1)C(=O)O)C(=O)O)C(=O)O)C(=O)O` (stereo not shown) [PSMA-1022, (Glu)-(Urea)-(Lys)-(2-Nal)-(γGlu)-(γGlu)-FN], for which the IC50 in experiment [1] amounted to 8 nM.

`O=C(O)CCC(NC(=O)NC(CCCCNC(=O)C(Cc1ccc2ccccc2c1)NC(=O)CCC(NC(=O)CCC(NC(=O)c1ccc([18F])nc1)C(=O)O)C(=O)O)C(=O)O)C(=O)O` (stereo not shown) [PSMA-1022, (Glu)-(Urea)-(Lys)-(2-Nal)-(γGlu)-(γGlu)-FN]: in experiment [2], the Cell surface stood at 3.5 % ID/10^5 cells, the Internalised was found to be 1.0 % ID/10^5 cells and the Internalized fraction came to 22%.

In the case of `O=C(O)CCC(NC(=O)NC(CCCCNC(=O)C(Cc1ccc2ccccc2c1)NC(=O)c1ccc(CNC(=O)C(CCC(=O)O)NC(=O)C(CCC(=O)O)NC(=O)c2ccc(F)nc2)cc1)C(=O)O)C(=O)O` [PSMA-1023, (Glu)-(Urea)-(Lys)-(2-Nal)-(Bn)-(D-Glu)-(D-Glu)-FN], in experiment [1], the IC50 is 8 nM.

For the compound `O=C(O)CCC(NC(=O)NC(CCCCNC(=O)C(Cc1ccc2ccccc2c1)NC(=O)c1ccc(CNC(=O)C(CCC(=O)O)NC(=O)C(CCC(=O)O)NC(=O)c2ccc([18F])nc2)cc1)C(=O)O)C(=O)O` [PSMA-1023, (Glu)-(Urea)-(Lys)-(2-Nal)-(Bn)-(D-Glu)-(D-Glu)-FN], in experiment [2], the Cell surface worked out at 6.5 % ID/10^5 cells, the Internalised came to 3.2 % ID/10^5 cells and the Internalized fraction turned out to be 33%.

As to `O=C(O)CCC(NC(=O)NC(CCCCNC(=O)C(Cc1ccc2ccccc2c1)NC(=O)c1ccc(CNC(=O)C(CCC(=O)O)NC(=O)C(CCC(=O)O)NC(=O)c2ccc(F)nc2)cc1)C(=O)O)C(=O)O` [PSMA-1024, (Glu)-(Urea)-(Lys)-(2-Nal)-(Bn)-(D-Glu)-(Glu)-FN], in experiment [1], the IC50 came to 8 nM.

In experiment [2], `O=C(O)CCC(NC(=O)NC(CCCCNC(=O)C(Cc1ccc2ccccc2c1)NC(=O)c1ccc(CNC(=O)C(CCC(=O)O)NC(=O)C(CCC(=O)O)NC(=O)c2ccc([18F])nc2)cc1)C(=O)O)C(=O)O` [PSMA-1024, (Glu)-(Urea)-(Lys)-(2-Nal)-(Bn)-(D-Glu)-(Glu)-FN] came in with a Cell surface of 5.3 % ID/10^5 cells, an Internalised of 2.1 % ID/10^5 cells and an Internalized fraction of 28%.

Take `O=C(O)CCC(NC(=O)NC(CCCCNC(=O)C(Cc1ccc2ccccc2c1)NC(=O)c1ccc(CNC(=O)C(CNC(=O)c2ccc([18F])nc2)S(=O)(=O)O)cc1)C(=O)O)C(=O)O` (stereo not shown) [PSMA-1026, (Glu)-(Urea)-(Lys)-(2-Nal)-(Bn)-(Sala)-FN]: in experiment [2], the Cell surface came to 1.3 % ID/10^5 cells, the Internalised is 1.3 % ID/10^5 cells and the Internalized fraction was found to be 50%.

For the compound `O=C(O)CCC(NC(=O)NC(CCCCNC(=O)C(Cc1ccc2ccccc2c1)NC(=O)c1ccc(CNC(=O)C(CNC(=O)C(CNC(=O)c2ccc([18F])nc2)S(=O)(=O)O)S(=O)(=O)O)cc1)C(=O)O)C(=O)O` (stereo not shown) [PSMA-1027, (Glu)-(Urea)-(Lys)-(2-Nal)-(Bn)-(Sala)-(Sala)-FN], in experiment [2], the Cell surface amounted to 0.9 % ID/10^5 cells, the Internalised is on record as 1.4 % ID/10^5 cells and the Internalized fraction is on record as 60%.
